Test results from BigSolDB 2.1.

N#Cc1c(Cl)c(Cl)c(Cl)c(C#N)c1Cl
solubility (mole fraction)
Settings	in 1,4-dioxane	in DMAc	in DMF	in MIBK	in THF	in acetone	in acetonitrile	in cyclohexanone	in ethyl acetate	in n-propyl acetate
288.15 K	0.0082	0.017	0.00992	0.00381	0.00909	0.00369	0.00134	0.0079	0.00311	0.0033
293.15 K	0.00951	0.0191	0.0111	0.00447	0.0102	0.00443	0.00161	0.00905	0.00374	0.00384
298.15 K	0.0109	0.0211	0.0128	0.00509	0.012	0.00512	0.00193	0.0106	0.00435	0.00444
303.15 K	0.0118	0.0239	0.0142	0.00603	0.0137	0.00566	0.00228	0.0123	0.00496	0.00523
308.15 K	0.0136	0.0264	0.0155	0.00668	0.0155	0.00682	0.00272	0.0135	0.00543	0.00566
313.15 K	0.015	0.03	0.0177	0.00802	0.0172	0.00779	0.00308	0.0154	0.00643	0.0067
318.15 K	0.0177	0.0334	0.0197	0.0102	0.0208	0.00932	0.00413	0.019	0.00744	0.0079
323.15 K	0.0215	0.0359	0.0233	0.0115	0.023	0.0113	0.00462	0.0222	0.00893	0.00904
